Results taken from BigSolDB 2.1.

COc1cc(/C=C/C(=O)CC(=O)/C=C/c2ccc(O)c(OC)c2)ccc1O
solubility (mole fraction)
Conditions | 278.15 K | 283.15 K | 288.15 K | 293.15 K | 298.15 K | 303.15 K | 308.15 K | 313.15 K | 318.15 K
in ethanol | 0.000407 | 0.000497 | 0.000573 | 0.000662 | 0.000769 | 0.000888 | 0.00101 | 0.00113 | 0.00128
in isopropanol | 0.00146 | 0.0017 | 0.00194 | 0.00219 | 0.00252 | 0.00284 | 0.00317 | 0.00357 | 0.004
in n-propanol | 0.0023 | 0.0026 | 0.00291 | 0.00325 | 0.0036 | 0.00401 | 0.00437 | 0.00484 | 0.00526
in propylene glycol | 0.000715 | 0.000827 | 0.000967 | 0.0011 | 0.00126 | 0.00143 | 0.00161 | 0.00182 | 0.00206
in water | 8.34e-09 | 1.16e-08 | 1.59e-08 | 2.15e-08 | 2.94e-08 | 4.03e-08 | 5.38e-08 | 7.06e-08 | 9.32e-08
